Source: ChEMBL document CHEMBL5346967, “Discovery of BI 7446: A Potent Cyclic Dinucleotide STING Agonist with Broad-Spectrum Variant Activity for the Treatment of Cancer” (J Med Chem, 2023)

Tests used:
[1] = target: T1, Stimulator of interferon genes protein (Homo sapiens, UniProt Q86WV6); details: filed as agonist
Target sequence in this assay (Q86WV6 whole entry): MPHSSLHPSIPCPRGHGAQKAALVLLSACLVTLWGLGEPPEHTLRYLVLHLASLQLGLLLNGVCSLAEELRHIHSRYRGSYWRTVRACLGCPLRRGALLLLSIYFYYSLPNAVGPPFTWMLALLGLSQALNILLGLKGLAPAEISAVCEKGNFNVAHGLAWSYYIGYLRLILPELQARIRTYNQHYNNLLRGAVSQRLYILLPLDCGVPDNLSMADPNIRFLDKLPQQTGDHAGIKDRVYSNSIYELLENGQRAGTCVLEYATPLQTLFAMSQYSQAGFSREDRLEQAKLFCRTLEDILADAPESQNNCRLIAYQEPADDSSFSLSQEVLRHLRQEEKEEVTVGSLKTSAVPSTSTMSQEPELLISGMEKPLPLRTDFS
Description: Binding affinity to recombinant human wild type STING (155 to 341 residues) expressed in Escherichia coli BL21 DE3 assessed as thermal stabilization by measuring change in melting temperature by differential scanning fluorimetry

[2] = target: T1, Stimulator of interferon genes protein; test: Agonist activity at human STING expressed in human THP-1 cells expressing IRF inducible SEAP reporter construct assessed as increase in interferon production incubated for 24 hrs by QUANTI-Blue colorimetric assay; type: cell-based
Target sequence in this assay (Q86WV6 whole entry): as above

[3] = target: T1, Stimulator of interferon genes protein; test: Agonist activity at human STING AQ variant overexpressed in STING knockout human THP1-Blue ISG cells expressing IRF inducible SEAP reporter construct assessed as increase in interferon production by measuring SEAP activity incubated for 24 hrs by Fingerprinting based QUANTI-Blue colorimetric assay; type: cell-based
Target sequence in this assay (Q86WV6 whole entry, looked up, change not shown): as the sequence (Q86WV6 whole entry) above

[4] = target: T1, Stimulator of interferon genes protein; test: Agonist activity at human wild type STING overexpressed in STING knockout human THP1-Blue ISG cells expressing IRF inducible SEAP reporter construct assessed as increase in interferon production by measuring SEAP activity incubated for 24 hrs by Fingerprinting based QUANTI-Blue colorimetric assay; type: cell-based
Target sequence in this assay (Q86WV6 whole entry): as above

[5] = target: T1, Stimulator of interferon genes protein; test: Agonist activity at human STING REF variant overexpressed in STING knockout human THP1-Blue ISG cells expressing IRF inducible SEAP reporter construct assessed as increase in interferon production by measuring SEAP activity incubated for 24 hrs by Fingerprinting based QUANTI-Blue colorimetric assay; type: cell-based
Target sequence in this assay (Q86WV6 whole entry, looked up, change not shown): as the sequence (Q86WV6 whole entry) above

[6] = target: T1, Stimulator of interferon genes protein; test: Agonist activity at human STING in STING knockout human THP1-Blue ISG cells expressing IRF inducible SEAP reporter construct assessed as increase in interferon production by measuring SEAP activity incubated for 24 hrs by Fingerprinting based QUANTI-Blue colorimetric assay; type: cell-based
Target sequence in this assay (Q86WV6 whole entry): as above

[7] = target: T1, Stimulator of interferon genes protein; test: Agonist activity at human STING HAQ variant overexpressed in STING knockout human THP1-Blue ISG cells expressing IRF inducible SEAP reporter construct assessed as increase in interferon production by measuring SEAP activity incubated for 24 hrs by Fingerprinting based QUANTI-Blue colorimetric assay; type: cell-based
Target sequence in this assay (Q86WV6 whole entry, looked up, change not shown): as the sequence (Q86WV6 whole entry) above

[8] = target: T1, Stimulator of interferon genes protein; test: Agonist activity at human STING Q variant overexpressed in STING knockout human THP1-Blue ISG cells expressing IRF inducible SEAP reporter construct assessed as increase in interferon production by measuring SEAP activity incubated for 24 hrs by Fingerprinting based QUANTI-Blue colorimetric assay; type: cell-based
Target sequence in this assay (Q86WV6 whole entry, looked up, change not shown): as the sequence (Q86WV6 whole entry) above

hERG (KCNH2) = hERG (KCNH2) (Homo sapiens, UniProt Q12809); test: Inhibition of human ERG at 10 uM; type: toxicity
[9] = Chemical stability of compound in phosphate buffer assessed as compound degradation at 1 mg/ml incubated for 8 weeks at 40 degreeC by HPLC-UV analysis; type: physicochemical; details: read-out: Drug degradation
[10] = Aqueous solubility of compound in phosphate buffer at pH 7.6 incubated for 2 hrs by HPLC-UV analysis; type: physicochemical
[11] = Stability in human plasma assessed as half life at 1 uM by HPLC/MS/MS analysis; type: ADME, cell-free
[12] = Volume of distribution at steady state in C57BL/6 mouse at 10 micromol/kg, iv by HPLC/MS/MS analysis; type: ADME, organism-based; details: in vivo, dose 10 µmol/kg, read-out: Vdss
[13] = Clearance in C57BL/6 mouse plasma assessed as hepatic blood flow at 10 micromol/kg, iv by HPLC/MS/MS analysis; type: ADME, organism-based; details: in vivo, at 10 µmol/kg
[14] = Protein binding in human plasma assessed as unbound fraction at 3 uM incubated for 2 hrs by equilibrium dialysis based HPLC/MS/MS analysis; type: ADME, cell-free
[15] = Elimination half life in BALB/c syngeneic mouse tumor xenografted with mouse 4T1 cells at 0.16 to 1.4 mg/kg,IT and measured upto 25 hrs by HPLC/MS/MS analysis; type: ADME, organism-based, Neoplasm; details: dose 0.16-1.4 mg/kg, read-out: beta t1/2 (converted)
[16] = Chemical stability of compound in 0.9% NaCl buffer assessed as compound degradation at 1 mg/ml incubated for 8 weeks at 40 degreeC by HPLC-UV analysis; type: physicochemical; details: read-out: Drug degradation
[17] = Aqueous solubility of compound in 0.9% NaCl buffer at pH 6.4 incubated for 2 hrs by HPLC-UV analysis; type: physicochemical
[18] = Protein binding in mouse plasma assessed as unbound fraction at 3 uM incubated for 2 hrs by equilibrium dialysis based HPLC/MS/MS analysis; type: ADME, cell-free
[19] = Stability in mouse plasma assessed as half life at 1 uM by HPLC/MS/MS analysis; type: ADME, cell-free
[20] = MRT in C57BL/6 mouse at 10 micromol/kg, iv by HPLC/MS/MS analysis; type: ADME, organism-based; details: in vivo, dose 10 µmol/kg
[21] = Clearance in C57BL/6 mouse plasma assessed as hepatic blood flow at 1 micromol/kg, iv by HPLC/MS/MS analysis; type: ADME, organism-based; details: in vivo, at 1 µmol/kg
[22] = target: T2, Stimulator of interferon genes protein (Mus musculus) (UniProt Q3TBT3); details: filed as agonist
T2 sequence (whole entry): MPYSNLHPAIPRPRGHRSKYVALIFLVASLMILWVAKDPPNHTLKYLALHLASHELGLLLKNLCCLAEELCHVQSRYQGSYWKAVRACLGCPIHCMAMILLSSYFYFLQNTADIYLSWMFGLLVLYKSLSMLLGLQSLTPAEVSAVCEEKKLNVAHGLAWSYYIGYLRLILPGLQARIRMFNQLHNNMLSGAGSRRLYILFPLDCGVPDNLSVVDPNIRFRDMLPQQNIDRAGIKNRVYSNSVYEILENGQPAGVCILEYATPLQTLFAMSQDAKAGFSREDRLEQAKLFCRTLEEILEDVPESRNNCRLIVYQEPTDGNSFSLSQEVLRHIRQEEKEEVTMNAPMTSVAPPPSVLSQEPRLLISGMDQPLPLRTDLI
Description: Binding affinity to recombinant mouse STING assessed as change in melting temperature by differential scanning fluorimetry

[23] = MRT in C57BL/6 mouse at 1 micromol/kg, iv by HPLC/MS/MS analysis; type: ADME, organism-based; details: in vivo, dose 1 µmol/kg
[24] = Volume of distribution at steady state in C57BL/6 mouse at 1 micromol/kg, iv by HPLC/MS/MS analysis; type: ADME, organism-based; details: in vivo, dose 1 µmol/kg, read-out: Vdss

Sequence of hERG (KCNH2) (Q12809 whole entry): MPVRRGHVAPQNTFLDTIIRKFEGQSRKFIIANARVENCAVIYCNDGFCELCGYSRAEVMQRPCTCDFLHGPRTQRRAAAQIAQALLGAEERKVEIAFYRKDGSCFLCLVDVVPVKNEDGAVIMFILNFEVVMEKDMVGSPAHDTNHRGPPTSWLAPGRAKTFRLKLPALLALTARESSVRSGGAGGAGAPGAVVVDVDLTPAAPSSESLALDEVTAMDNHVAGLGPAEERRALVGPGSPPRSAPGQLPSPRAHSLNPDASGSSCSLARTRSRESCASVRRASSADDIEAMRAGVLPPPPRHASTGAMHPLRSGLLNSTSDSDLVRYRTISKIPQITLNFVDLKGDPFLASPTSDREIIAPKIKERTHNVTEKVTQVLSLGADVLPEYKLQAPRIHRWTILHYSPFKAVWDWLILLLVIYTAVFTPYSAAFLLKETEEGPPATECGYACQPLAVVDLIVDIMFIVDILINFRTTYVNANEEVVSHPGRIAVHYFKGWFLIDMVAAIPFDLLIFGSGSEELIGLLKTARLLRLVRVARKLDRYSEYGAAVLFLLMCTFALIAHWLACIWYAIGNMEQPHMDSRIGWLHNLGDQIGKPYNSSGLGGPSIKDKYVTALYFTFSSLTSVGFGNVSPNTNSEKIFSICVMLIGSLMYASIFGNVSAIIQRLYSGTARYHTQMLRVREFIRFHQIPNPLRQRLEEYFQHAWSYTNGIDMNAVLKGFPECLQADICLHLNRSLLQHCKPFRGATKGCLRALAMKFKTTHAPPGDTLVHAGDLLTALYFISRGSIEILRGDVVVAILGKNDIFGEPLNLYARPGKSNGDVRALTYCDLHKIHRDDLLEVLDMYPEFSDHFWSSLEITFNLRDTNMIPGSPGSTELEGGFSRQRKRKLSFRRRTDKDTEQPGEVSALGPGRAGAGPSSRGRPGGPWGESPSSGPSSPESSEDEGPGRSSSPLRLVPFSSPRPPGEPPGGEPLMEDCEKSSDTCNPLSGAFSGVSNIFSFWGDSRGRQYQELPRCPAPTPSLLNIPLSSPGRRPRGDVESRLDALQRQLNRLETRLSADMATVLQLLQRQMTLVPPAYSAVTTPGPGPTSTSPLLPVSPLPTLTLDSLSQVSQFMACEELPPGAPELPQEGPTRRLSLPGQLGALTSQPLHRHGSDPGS

| Structure (SMILES) | deltaTm [1] [K] | EC50 [2] [nM] | EC50 [3] [nM] | EC50 [4] [nM] | EC50 [5] [nM] | EC50 [6] [nM] | EC50 [7] [nM] | EC50 [8] [nM] | also measured |
| --- | --- | --- | --- | --- | --- | --- | --- | --- | --- |
| Nc1ncnc2c1ncn2[C@@H]1O[C@@H]2CO[P@@](=O)(S)O[C@@H]3[C@H](O)[C@@H](CO[P@@](=O)(S)O[C@H]2[C@H]1F)O[C@H]3n1cnc2c(=O)[nH]nnc21 | 23.9 | 160 | 610 | 580 | 6010 | > 50000 | 580 | 1880 |  |
| Nc1ncnc2c1ncn2[C@@H]1O[C@@H]2CO[P@@](=O)(S)O[C@@H]3[C@H](O)[C@@H](CO[P@@](=O)(S)O[C@H]2[C@H]1F)O[C@H]3n1cnc2c(=O)[nH]ncc21 |  |  |  |  |  |  |  |  | inhibition at 10 µM (hERG (KCNH2)): 1%; degraded at 1344 h, 1 mg/ml [9]: > 0.5%; solubility at 2 h [10]: > 10000 µg/mL; half-life at 1 µM [11]: > 2.17 h; Vd [12]: 2.2 L/kg; QH [13]: 78%; fraction unbound at 2 h, 3 µM [14]: 0.74; half-life [15]: 7 h; degraded at 1344 h, 1 mg/ml [16]: > 0.5%; solubility at 2 h [17]: > 10000 µg/mL; fraction unbound at 2 h, 3 µM [18]: 0.77; half-life at 1 µM [19]: > 2.17 h; MRT [20]: 0.53 h |
| O=c1[nH]ncc2c1ncn2[C@@H]1O[C@@H]2CO[P@@](=O)(S)O[C@H]3[C@@H](O)[C@H](n4cnc5ccccc54)O[C@@H]3CO[P@@](=O)(S)O[C@@H]1[C@@H]2O | 3.6 | > 100000 |  |  |  |  |  |  |  |
| Nc1ncnc2c1ncn2[C@@H]1O[C@@H]2CO[P@@](=O)(S)O[C@@H]3[C@H](O)[C@@H](CO[P@@](=O)(S)O[C@H]2[C@H]1F)O[C@H]3c1cnn2c(=O)[nH]ncc12 | 18 | 140 | 680 | 830 | 24300 | > 50000 | 1040 | 3380 |  |
| Nc1ncnc2c1ncn2[C@@H]1O[C@@H]2CO[P@@](=O)(S)O[C@@H]3[C@H](O)[C@@H](CO[P@@](=O)(S)O[C@H]2[C@H]1O)O[C@H]3n1cnc2c(N)ncnc21 |  |  |  |  |  |  |  |  | inhibition at 10 µM (hERG (KCNH2)): 0.4%; QH [21]: 120%; deltaTm [22]: 13.5 K; MRT [23]: 7.2 min; Vd [24]: 0.8 L/kg; fraction unbound at 2 h, 3 µM [18]: 0.32; half-life at 1 µM [19]: > 2.17 h |
| Nc1ncnc2c1ncn2[C@@H]1CO[C@@H]2O[P@@](=O)(S)O[C@@H]3[C@H](O)[C@@H](CO[P@@](=O)(S)O[C@H]2[C@H]1O)O[C@H]3n1cnc2c(=O)[nH]ncc21 | 1.75 | > 100000 |  |  |  |  |  |  |  |
| O=c1[nH]ncc2c1ncn2[C@@H]1O[C@@H]2CO[P@@](=O)(S)O[C@H]3[C@@H](O)[C@H](n4cnc5cncnc54)O[C@@H]3CO[P@@](=O)(S)O[C@@H]1[C@@H]2O | 13.9 | 230 | 1670 | 1950 | > 50000 | > 50000 | 2060 | 22500 |  |

Further lines, with some results ahead:

| deltaTm [1] [K] | EC50 [2] [nM] | EC50 [3] [nM] | EC50 [4] [nM] | EC50 [5] [nM] | EC50 [6] [nM] | EC50 [7] [nM] | EC50 [8] [nM] | Structure (SMILES) | also measured |
| --- | --- | --- | --- | --- | --- | --- | --- | --- | --- |
| 3.7 | > 100000 |  |  |  |  |  |  | CO[C@@H]1[C@@H]2O[P@](=O)(S)OC[C@H]3O[C@@H](n4cnc5c(=O)[nH]ncc54)[C@H](O[P@](=O)(S)OC[C@H]2O[C@H]1n1cnc2c(N)ncnc21)[C@@H]3O |  |
| 17 | 170 |  |  |  |  |  |  | Nc1ncnc2c1ncn2[C@@H]1O[C@@]23CO[C@@H]1[C@@H]2O[P@](=O)(S)OC[C@H]1O[C@@H](n2cnc4c(=O)[nH]ncc42)[C@H](O[P@](=O)(S)OC3)[C@@H]1O |  |
